Reference: US10239856B2, “Synthesis of resorcylic acid lactones useful as therapeutic agents” (UNIVERSITY DE STRASBOURG, priority 2008, dated 2019)
Like-named read-outs stand apart in the source and are kept apart here.

Tests used:
HSP90α = HSP90α (Homo sapiens, UniProt P07900); experiment: Affinity to HSP90α; type: binding
Her-2 (HSP90 client) = Her-2 (HSP90 client) degradation (client depletion); type: cell-based
Description: A number of the compounds of the invention were tested for affinity to HSP90α (see Kim et al., J. Biomol. Screen., 2004, 9, 375), Her-2 (HSP90 client) degradation (see Xu et al., J. Biol. Chem., 2001, 276, 3702), and cytotoxicity against SKBr3 and HCC1954, two breast cancer cell lines which over express Her-2.

[1] = read-out: Client Depletion; Her-2 degradation
[2] = Her-2 degradation; read-out: Client Depletion

Compound | IC50 (HSP90α; read-out: HSP90 affinity) | IC50 (Her-2 (HSP90 client); [1]) | IC50 (HSP90α; HSP90 affinity) | IC50 (Her-2 (HSP90 client); [2])
O=C1OCC/C=C/CCCCC(=NOCC(=O)N2CCCCC2)Cc2c(Cl)c(O)cc(O)c21 [13g] | 81 nM |  |  | 
C/C1=C\C(=NOCC(=O)N2CCCCC2)Cc2cc(O)cc(O)c2C(=O)OCC/C=C/CC1 [compound 349] |  | 105 nM | 46 nM | 
CCN(CC)C(=O)CON=C1/C=C(\C)CC/C=C/C[C@@H](C)OC(=O)c2c(O)cc(O)cc2C1 [compound 351] |  | 900 nM | 204 nM | 
CCN(CC)C(=O)CON=C1/C=C/CC/C=C/CCOC(=O)c2c(O)cc(O)cc2C1 [compound 357] |  | 730 nM | 196 nM | 
CCCC1C/C=C/CC/C=C/C(=NOCC(=O)N2CCCCC2)Cc2cc(O)cc(O)c2C(=O)O1 (centres unmarked) [compound 358] |  | > 10000 nM | 587 nM | 
CCCC1C/C=C/CCCCC(=NOCC(=O)N2CCCCC2)Cc2cc(O)cc(O)c2C(=O)O1 (centres unmarked) [compound 359] |  | > 8800 nM | 1940 nM | 
CC1/C=C/CCCOC(=O)c2c(O)cc(O)cc2CC(=NOCC(=O)N2CCCCC2)/C=C/C1 (centres unmarked) [compound 361] | 543 nM |  |  | 2960 nM
CCCC1C/C=C/C(C)C/C=C/C(=NOCC(=O)N2CCCCC2)Cc2c(Cl)c(O)cc(O)c2C(=O)O1 (centres unmarked) [compound 365] |  | 8970 nM | 1750 nM | 
CC1/C=C/CCCOC(=O)c2c(O)cc(O)c(Cl)c2CC(=NOCC(=O)N2CCCCC2)/C=C/C1 (centres unmarked) [compound 367] |  | > 10000 nM | 1720 nM | 
CC1/C=C/COC(=O)c2c(O)cc(O)c(Cl)c2CC(=NOCC(=O)N2CCCCC2)/C=C/C1 (centres unmarked) [compound 368] | 599 nM |  |  | > 10000 nM
CC1/C=C/CCOC(=O)c2c(O)cc(O)cc2CC(=NOCC(=O)N2CCCCC2)/C=C/C1 (centres unmarked) [compound 370] |  | 97 nM | 38 nM | 
CC1CCCC(C)N1C(=O)CON=C1/C=C/CC/C=C/CCOC(=O)c2c(O)cc(O)cc2C1 (centres unmarked) [compound 374] |  | 2030 nM | 238 nM | 
O=C1OCC/C=C/CC/C=C/C(=NOCC(=O)N2CCNCC2)Cc2cc(O)cc(O)c21 [compound 393] |  |  | 97 nM | 
C[C@@H]1C/C=C/[C@@H](O)C/C=C/C(=N/OCC(=O)N2CCCCC2)Cc2cc(O)cc(O)c2C(=O)O1 [compound 457] |  |  | 12 nM | 

More lines, now with the values ahead:

IC50 (HSP90α; read-out: HSP90 affinity) | IC50 (Her-2 (HSP90 client); [1]) | IC50 (HSP90α; HSP90 affinity) | IC50 (Her-2 (HSP90 client); [2]) | Compound
< 52 nM |  |  |  | C/C1=C\C(=NOCC(=O)N2CCCCC2)Cc2cc(O)cc(O)c2C(=O)O[C@H](C)C/C=C/CC1 [compound 336]
 | 805 nM | 196 nM |  | CCCC1C/C=C/CC/C(C)=C/C(=NOCC(=O)N2CCCCC2)Cc2cc(O)cc(O)c2C(=O)O1 (centres unmarked) [compound 350]
3030 nM |  |  | > 10000 nM | O=C1OC/C=C/CCCCC(=NOCC(=O)N2CCCCC2)Cc2cc(O)cc(O)c21 [compound 353]
511 nM |  |  | 9480 nM | O=C1OCC/C=C/CCCCC(=NOCC(=O)N2CCCCC2)Cc2c(Cl)c(O)cc(O)c21 [compound 356]
 | > 10000 nM | 4660 nM |  | CCCC1C/C=C/CC/C(C)=C/C(=NOCC(=O)N(CC)CC)Cc2cc(O)cc(O)c2C(=O)O1 (centres unmarked) [compound 362]
 | > 10000 nM | 900 nM |  | CCCC1C/C=C/CC/C(C)=C/C(=NOCC(=O)N(CC)CC)Cc2cc(O)cc(O)c2C(=O)O1 (centres unmarked) [compound 363]
 | 2040 nM | 170 nM |  | CC1/C=C/CCOC(=O)c2c(O)cc(O)c(Cl)c2CC(=NOCC(=O)N2CCCCC2)/C=C/C1 (centres unmarked) [compound 366]
 | 677 nM | 154 nM |  | CC1/C=C/C[C@@H](C)OC(=O)c2c(O)cc(O)c(Cl)c2CC(=NOCC(=O)N2CCCCC2)/C=C/C1 (some centres unmarked) [compound 369]
 | 629 nM | 243 nM |  | CCC1CCCCN1C(=O)CON=C1/C=C/CC/C=C/CCOC(=O)c2c(O)cc(O)cc2C1 (centres unmarked) [compound 371]
 | 3070 nM | 886 nM |  | CC1CCCCN1C(=O)CON=C1/C=C/CC/C=C/CCOC(=O)c2c(O)cc(O)cc2C1 (centres unmarked) [compound 372]
 | 89 nM | 59 nM |  | CC1CCCN(C(=O)CON=C2/C=C/CC/C=C/CCOC(=O)c3c(O)cc(O)cc3C2)C1 (centres unmarked) [compound 373]
 | 450 nM |  |  | C[C@@H]1C[C@H]2O[C@@H]2/C=C\C=C\C(=O)Cc2c(Cl)c(O)cc(O)c2C(=O)O1 [radicicol, reference compound]
